# Data from patent US20100069340A1, “PHARMACEUTICAL COMPOSITIONS OF AN SRC KINASE INHIBITOR AND AN AROMATASE INHIBITOR” (Wyeth, priority 2008, published 2010).
# Assay: Phase 2 open-label study of bosutinib, safety (TEAEs)
# Assay type: in vivo, human
# Conditions: 400 mg once-daily, 73 subjects
# Description: In a phase 2, open-label, study of bosutinib in subjects with advanced or metastatic breast cancer where bosutinib is given at 400 mg once-daily, 73 total patients were randomized. As of 9 Jun. […] All of the responding patients had ER/PgR+ metastatic disease, but were less heavily pretreated with chemotherapy than typical patients and none had received prior endocrine therapy. […] In that trial, the median PFS was 15 weeks for all patients, 15.6 weeks and 14.9 weeks in ER+ and/or PgR+ and ER+ and/or PgR+, HER2-patients subgroups, respectively. There were 51 ER/PgR+ patients enrolled in the trial and a little more than half had received prior endocrine therapy, out of them 33 patients were ER/PgR+, HER2-. The preliminary safety data available for 73 subjects as of 9 Jun. 2008 are consistent with data from other ongoing studies. TEAEs were most frequently associated with gastrointestinal disorders (diarrhea, 66%; nausea, 55%; vomiting, 47%; abdominal pain, 12%; dyspepsia, 10%), general disorders (fatigue, 26%, asthenia, 19%, peripheral oedema, 11%; pyrexia, 10%), infections and infestations (16%), metabolism disorders (ALT increase, 12%; AST increase, 12%, weight loss, 11%; anorexia, 18%), musculoskeletal disorders (anthralgia, 12%; back pain, 12%), headache (14%), and rash (14%). Out of all of these TEAEs, only gastrointestinal disorders (diarrhea, 64%; nausea, 51%; vomiting, 42%; abdominal pain, 10%), general disorders (fatigue, 16%, asthenia, 14%), metabolism disorders (ALT increase, 11%; AST increase, 10%; anorexia, 15%) and rash (10%) were considered at least possibly related to bosutinib.
smiles,measurement,setting,value
COc1cc(Nc2c(C#N)cnc3cc(OCCCN4CCN(C)CC4)c(OC)cc23)c(Cl)cc1Cl [bosutinib],TEAE ALT increase,all TEAEs,12%
same,TEAE AST increase,all TEAEs,12%
same,TEAE abdominal pain,all TEAEs,12%
same,TEAE anorexia,all TEAEs,18%
same,TEAE anthralgia,all TEAEs,12%
same,TEAE asthenia,all TEAEs,19%
same,TEAE back pain,all TEAEs,12%
same,TEAE diarrhea,all TEAEs,66%
same,TEAE dyspepsia,all TEAEs,10%
same,TEAE fatigue,all TEAEs,26%
same,TEAE headache,all TEAEs,14%
same,TEAE infections and infestations,all TEAEs,16%
same,TEAE nausea,all TEAEs,55%
same,TEAE peripheral oedema,all TEAEs,11%
same,TEAE pyrexia,all TEAEs,10%
same,TEAE rash,all TEAEs,14%
same,TEAE vomiting,all TEAEs,47%
same,TEAE weight loss,all TEAEs,11%
same,"TEAE ALT increase, at least possibly related to bosutinib",related TEAEs,11%
same,"TEAE AST increase, at least possibly related to bosutinib",related TEAEs,10%
same,"TEAE abdominal pain, at least possibly related to bosutinib",related TEAEs,10%
same,"TEAE anorexia, at least possibly related to bosutinib",related TEAEs,15%
same,"TEAE asthenia, at least possibly related to bosutinib",related TEAEs,14%
same,"TEAE diarrhea, at least possibly related to bosutinib",related TEAEs,64%
same,"TEAE fatigue, at least possibly related to bosutinib",related TEAEs,16%
same,"TEAE nausea, at least possibly related to bosutinib",related TEAEs,51%
same,"TEAE rash, at least possibly related to bosutinib",related TEAEs,10%
same,"TEAE vomiting, at least possibly related to bosutinib",related TEAEs,42%
